Data from ChEMBL document CHEMBL1141269, “Pordamacrines A and B, alkaloids from Daphniphyllum macropodum” (2007).

Tested on: Thoracic aorta
Assay: Vasorelaxant activity against norepinephrine-induced contraction in Wistar rat thoracic aorta at 100 uM
Type: functional
Design: scale not given: the % may be the effect or the level left

SMILES | Activity [%]
COC(=O)[C@@H]1C[C@@]23C4=C(CCC5CN6C[C@@H](C)C(O)(C=CC52CO)C63O)CC[C@@H]41 (some centres not stated) [PORDAMACRINE A] | 50
COC(=O)[C@@H]1C[C@@]23C4=C(CCC5CN6C[C@@H](C)C(C=CC52CO)C63O)CC[C@@H]41 (some centres not stated) [PORDAMACRINE B] | 47.1
